Data taken from patent US20240269157A1, “COMPOSITIONS AND METHODS FOR OVERCOMING MICROENVIRONMENT-MEDIATED RESISTANCE VIA E-SELECTIN TARGETING” (GLYCOMIMETICS, INC., priority 2021, published 2024).

Assays:
[1] = tested on: patient-derived primary AML xenograft (JAK2 and c-Kit); assay: PDX model (mutations in JAK2 and c-Kit), LSC retention and CyTOF of BM cells; assay type: in vivo, mice
Excerpt: (§1) Intra-vital imaging was employed to investigate the effects of Compound B on AML cell motility in the bone marrow of triple reporter mice (Blood: dextran-TRITC; Host T-cells: DsRed; Host myeloid CD11 cells: EYFP) injected with AML cells carrying a turquoise fluorescent protein reporter gene. […] Individual cells were dislodged from the niche and traveled long-distance (FIG. 17C). The combined inhibition of E-selectin and CXCR4 depleted bone marrow vascular niche areas of leukemia cells.
In order to better understand how the augmented AML mobilization improves the efficacy of AML therapy, BM cells from PDX mice treated for 2 weeks with Compound A, Compound B, venetoclax/HMA (Ven/HMA), and their combinations were analyzed by single-cell proteomics (CyTOF). […] However, pharmacological antagonists of E-selectin (Compound A) or E-selectin/CXCR4 (Compound B) protected endothelial cells from Ven/HMA-induced detrimental insults through upregulation of survival signaling cascades, including pAKT, pERK, pMAPK and […] eNOS expression in endothelial cells compared to Ven/HMA treatment alone.

[2] = tested on: leukemia cells with ECs and MSCs; details: Zhang et al., 2016, cited from earlier work
[3] = tested on: AML cells in bone marrow; assay: Intra-vital 2-photon imaging of AML cell motility in bone marrow; assay type: in vivo, triple reporter mice; details: from 2.2 μm/min, p<0.001; i.v. administration
Excerpt: as §1

[4] = tested on: leukemia cells in the BM; details: in vivo; Zhang et al., 2016; cited from earlier work
[5] = tested on: luc-MV4.11 cells; assay: MV4.11 AML model survival; assay type: in vivo, NSG mice; details: 40 mg/kg Compound A i.p., 100 mg/kg venetoclax oral, 14 days once daily
Description: To evaluate the efficacy of targeting E-selectin with Compound A in combination with venetoclax, an in vivo MV4.11 AML model was employed (FIG. 16).
luc-MV4.11 cells (5×10^6 cells/mouse) were transplanted into NSG mice. Mice were divided into four groups: vehicle treatment only; 40 mg/kg of Compound A (intraperitoneal, 14 day once daily); 100 mg/kg venetoclax (oral, 14 days once daily), and a combination of 40 mg/kg Compound A and 100 mg/kg venetoclax. Drug treatment was initiated on day 10 post-transplantation.

[6] = in combination with Ven/HMA, 2 weeks, CyTOF of BM cells

SMILES | levels of E-selectin ligand, mTOR, pFAK, pRb, cMyc [1, 6] | p21 and cleaved caspase3 [1, 6] | protection of MSC ([1]; mouse, in vivo) | protection of endothelial cells from Ven/HMA-induced detrimental insults ([1]; upregulated pAKT, pERK, pMAPK, decreased eNOS vs Ven/HMA alone) | leukemia cell adhesion to ECs and MSCs [2] | BM-mediated protection of leukemic cells during FLT3-targeted therapy ([2]; in vitro) | AML cell motility [3] | leukemia cells in the BM [4] | median survival time (MST) [5]
CCC1CC(C(=O)NCCNCc2ccc(CN3CCCNCCNCCCNCC3)c(Br)c2)CC(OC2OC(CO)C(O)C(O[C@@H](CC3CCCCC3)C(=O)O)C2NC(C)=O)C1OC1OC(C)C(O)C(O)C1O (stereo partly drawn) [Compound B] | diminished | increasing | protected | protected | markedly reduced | eliminated | 5.4 μm/min | effectively reduced | –
CC1(C)CCC(CN2CCN(c3ccc(C(=O)NS(=O)(=O)c4ccc(NCC5CCOCC5)c([N+](=O)[O-])c4)c(Oc4cnc5[nH]ccc5c4)c3)CC2)=C(c2ccc(Cl)cc2)C1 [venetoclax] | – | – | – | – | – | – | – | – | 46 days
